Laboratory results: ChEMBL document CHEMBL5291721, “A preclinical secondary pharmacology resource illuminates target-adverse drug reaction associations of marketed drugs” (Nat Commun, 2023)

Key:
[1] = target: Adenosine receptor A2a (Homo sapiens, UniProt P29274)
[2] = target: T1, Alpha-2C adrenergic receptor (Homo sapiens, UniProt P18825); format: functional
T1 sequence (P18825 whole entry): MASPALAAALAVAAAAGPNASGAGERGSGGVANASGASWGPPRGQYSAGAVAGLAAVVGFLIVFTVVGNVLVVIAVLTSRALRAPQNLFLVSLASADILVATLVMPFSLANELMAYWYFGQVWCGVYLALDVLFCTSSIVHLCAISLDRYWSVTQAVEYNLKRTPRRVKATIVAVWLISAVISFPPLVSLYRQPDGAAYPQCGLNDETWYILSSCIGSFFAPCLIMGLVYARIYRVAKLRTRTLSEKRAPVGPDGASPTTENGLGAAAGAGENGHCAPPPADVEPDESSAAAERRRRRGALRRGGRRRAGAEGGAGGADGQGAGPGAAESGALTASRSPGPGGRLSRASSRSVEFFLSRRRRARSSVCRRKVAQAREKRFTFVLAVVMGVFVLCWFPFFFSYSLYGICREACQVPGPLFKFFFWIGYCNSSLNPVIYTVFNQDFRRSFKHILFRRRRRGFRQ

[3] = target: T2, Type-1 angiotensin II receptor (Homo sapiens, UniProt P30556)
T2 sequence (P30556 whole entry): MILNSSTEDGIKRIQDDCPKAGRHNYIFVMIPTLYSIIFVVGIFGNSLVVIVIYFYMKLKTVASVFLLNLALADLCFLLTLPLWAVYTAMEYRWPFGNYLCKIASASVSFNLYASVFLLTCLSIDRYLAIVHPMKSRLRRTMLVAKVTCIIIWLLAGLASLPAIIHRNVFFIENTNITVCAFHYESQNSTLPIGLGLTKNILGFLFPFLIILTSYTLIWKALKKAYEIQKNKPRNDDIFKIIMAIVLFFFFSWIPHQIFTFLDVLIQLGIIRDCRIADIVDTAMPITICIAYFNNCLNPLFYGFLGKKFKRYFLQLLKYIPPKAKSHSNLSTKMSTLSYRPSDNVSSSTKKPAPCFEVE

[4] = target: Growth hormone secretagogue receptor type 1 (Homo sapiens, UniProt Q92847)
Chain of Growth hormone secretagogue receptor type 1 (Q92847 whole entry): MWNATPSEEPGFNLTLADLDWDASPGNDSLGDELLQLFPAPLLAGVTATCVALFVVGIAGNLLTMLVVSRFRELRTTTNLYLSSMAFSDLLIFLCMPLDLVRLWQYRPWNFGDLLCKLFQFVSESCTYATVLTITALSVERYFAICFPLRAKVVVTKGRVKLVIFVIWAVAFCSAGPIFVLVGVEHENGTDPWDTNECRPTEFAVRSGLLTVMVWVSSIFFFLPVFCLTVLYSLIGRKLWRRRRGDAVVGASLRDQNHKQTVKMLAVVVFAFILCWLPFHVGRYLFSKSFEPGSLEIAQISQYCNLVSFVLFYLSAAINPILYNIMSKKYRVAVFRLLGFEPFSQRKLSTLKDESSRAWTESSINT

[5] = target: Histamine H2 receptor (Homo sapiens, UniProt P25021); format: functional, cell-based
Chain of Histamine H2 receptor (P25021 whole entry): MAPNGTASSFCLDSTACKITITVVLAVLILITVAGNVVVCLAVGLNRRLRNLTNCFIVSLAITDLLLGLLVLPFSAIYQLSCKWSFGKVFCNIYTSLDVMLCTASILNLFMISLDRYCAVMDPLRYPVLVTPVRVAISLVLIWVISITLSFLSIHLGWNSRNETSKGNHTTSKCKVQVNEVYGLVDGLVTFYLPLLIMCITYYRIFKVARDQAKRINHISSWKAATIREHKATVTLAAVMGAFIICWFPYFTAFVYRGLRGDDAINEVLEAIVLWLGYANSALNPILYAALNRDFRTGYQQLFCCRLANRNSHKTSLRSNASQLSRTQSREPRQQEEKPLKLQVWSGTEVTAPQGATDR

[6] = target: T3, 5-hydroxytryptamine receptor 3A (Homo sapiens, UniProt P46098); format: functional
T3 sequence (P46098 whole entry): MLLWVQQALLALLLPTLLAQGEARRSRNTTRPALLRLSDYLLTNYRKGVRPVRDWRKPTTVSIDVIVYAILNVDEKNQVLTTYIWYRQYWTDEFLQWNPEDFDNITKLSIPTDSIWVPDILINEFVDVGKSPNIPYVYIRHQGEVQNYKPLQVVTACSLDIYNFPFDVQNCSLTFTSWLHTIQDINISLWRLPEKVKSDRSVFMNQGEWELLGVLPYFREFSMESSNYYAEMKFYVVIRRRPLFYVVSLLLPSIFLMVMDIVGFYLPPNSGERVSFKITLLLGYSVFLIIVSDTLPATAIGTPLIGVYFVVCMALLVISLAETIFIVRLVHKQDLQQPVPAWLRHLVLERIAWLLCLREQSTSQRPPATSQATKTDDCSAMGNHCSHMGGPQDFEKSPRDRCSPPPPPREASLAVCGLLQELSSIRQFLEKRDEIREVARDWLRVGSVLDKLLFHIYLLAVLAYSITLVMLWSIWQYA

[7] = target: Motilin receptor (Homo sapiens, UniProt O43193)
Chain of Motilin receptor (O43193 whole entry): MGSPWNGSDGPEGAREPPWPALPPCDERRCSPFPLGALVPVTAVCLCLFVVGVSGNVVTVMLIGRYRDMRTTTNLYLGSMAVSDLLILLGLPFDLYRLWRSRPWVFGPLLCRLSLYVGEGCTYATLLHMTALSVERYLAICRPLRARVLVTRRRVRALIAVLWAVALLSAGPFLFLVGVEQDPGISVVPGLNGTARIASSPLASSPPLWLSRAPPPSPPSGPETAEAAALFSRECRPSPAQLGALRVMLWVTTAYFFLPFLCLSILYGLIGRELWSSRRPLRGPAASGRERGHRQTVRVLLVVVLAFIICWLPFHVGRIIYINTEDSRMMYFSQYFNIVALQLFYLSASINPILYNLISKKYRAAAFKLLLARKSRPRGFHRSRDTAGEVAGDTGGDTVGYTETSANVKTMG

[8] = target: T4, Neuropeptide Y receptor type 1 (Homo sapiens, UniProt P25929); conditions: read-out: AC50
T4 sequence (P25929 whole entry): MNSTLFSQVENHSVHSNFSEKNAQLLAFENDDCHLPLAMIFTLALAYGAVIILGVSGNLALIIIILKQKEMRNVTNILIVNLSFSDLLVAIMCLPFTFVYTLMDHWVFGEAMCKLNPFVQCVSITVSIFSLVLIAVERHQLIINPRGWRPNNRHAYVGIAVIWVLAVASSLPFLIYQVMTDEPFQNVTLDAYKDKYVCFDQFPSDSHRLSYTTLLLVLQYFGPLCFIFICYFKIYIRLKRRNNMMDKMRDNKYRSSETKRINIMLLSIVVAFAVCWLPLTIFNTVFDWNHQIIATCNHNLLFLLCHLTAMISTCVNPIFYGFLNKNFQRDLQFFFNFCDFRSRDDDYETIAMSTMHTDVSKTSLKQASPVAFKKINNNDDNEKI

[9] = target: 3',5'-cyclic-AMP phosphodiesterase 4D (Homo sapiens, UniProt Q08499); format: functional
Chain of 3',5'-cyclic-AMP phosphodiesterase 4D (Q08499 whole entry): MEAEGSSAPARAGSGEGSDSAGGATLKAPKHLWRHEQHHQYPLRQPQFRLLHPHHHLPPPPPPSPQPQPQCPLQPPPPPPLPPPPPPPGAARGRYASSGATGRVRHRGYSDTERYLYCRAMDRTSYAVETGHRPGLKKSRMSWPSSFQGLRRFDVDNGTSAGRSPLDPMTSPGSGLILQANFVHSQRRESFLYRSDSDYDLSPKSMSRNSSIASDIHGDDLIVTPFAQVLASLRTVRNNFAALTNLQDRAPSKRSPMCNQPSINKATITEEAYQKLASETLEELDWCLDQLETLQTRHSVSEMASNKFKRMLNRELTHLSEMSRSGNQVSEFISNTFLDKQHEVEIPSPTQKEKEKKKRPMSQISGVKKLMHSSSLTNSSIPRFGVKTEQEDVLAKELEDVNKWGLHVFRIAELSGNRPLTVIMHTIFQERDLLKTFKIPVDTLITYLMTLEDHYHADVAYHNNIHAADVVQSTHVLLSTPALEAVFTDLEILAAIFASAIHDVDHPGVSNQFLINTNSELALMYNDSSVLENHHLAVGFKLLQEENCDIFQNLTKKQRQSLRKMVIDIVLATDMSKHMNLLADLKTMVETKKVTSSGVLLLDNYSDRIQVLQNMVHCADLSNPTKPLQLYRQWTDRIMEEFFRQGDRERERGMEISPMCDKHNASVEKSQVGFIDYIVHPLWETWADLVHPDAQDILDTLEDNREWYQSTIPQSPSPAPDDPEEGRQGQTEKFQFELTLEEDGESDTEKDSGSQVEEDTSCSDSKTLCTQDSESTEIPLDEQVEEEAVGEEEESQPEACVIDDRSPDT

[10] = target: T5, Thromboxane A2 receptor (Homo sapiens, UniProt P21731)
T5 sequence (P21731 whole entry): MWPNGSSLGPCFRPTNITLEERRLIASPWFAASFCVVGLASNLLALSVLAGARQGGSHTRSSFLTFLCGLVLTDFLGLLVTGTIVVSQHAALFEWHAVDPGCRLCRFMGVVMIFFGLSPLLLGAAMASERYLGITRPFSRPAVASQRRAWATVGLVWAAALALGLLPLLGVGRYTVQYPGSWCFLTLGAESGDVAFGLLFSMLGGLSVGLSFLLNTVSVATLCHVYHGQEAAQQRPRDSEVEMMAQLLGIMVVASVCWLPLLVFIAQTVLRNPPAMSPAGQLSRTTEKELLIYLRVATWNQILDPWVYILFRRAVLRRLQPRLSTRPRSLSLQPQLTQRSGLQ

[11] = target: Sodium-dependent noradrenaline transporter (Homo sapiens, UniProt P23975)
Chain of Sodium-dependent noradrenaline transporter (P23975 whole entry): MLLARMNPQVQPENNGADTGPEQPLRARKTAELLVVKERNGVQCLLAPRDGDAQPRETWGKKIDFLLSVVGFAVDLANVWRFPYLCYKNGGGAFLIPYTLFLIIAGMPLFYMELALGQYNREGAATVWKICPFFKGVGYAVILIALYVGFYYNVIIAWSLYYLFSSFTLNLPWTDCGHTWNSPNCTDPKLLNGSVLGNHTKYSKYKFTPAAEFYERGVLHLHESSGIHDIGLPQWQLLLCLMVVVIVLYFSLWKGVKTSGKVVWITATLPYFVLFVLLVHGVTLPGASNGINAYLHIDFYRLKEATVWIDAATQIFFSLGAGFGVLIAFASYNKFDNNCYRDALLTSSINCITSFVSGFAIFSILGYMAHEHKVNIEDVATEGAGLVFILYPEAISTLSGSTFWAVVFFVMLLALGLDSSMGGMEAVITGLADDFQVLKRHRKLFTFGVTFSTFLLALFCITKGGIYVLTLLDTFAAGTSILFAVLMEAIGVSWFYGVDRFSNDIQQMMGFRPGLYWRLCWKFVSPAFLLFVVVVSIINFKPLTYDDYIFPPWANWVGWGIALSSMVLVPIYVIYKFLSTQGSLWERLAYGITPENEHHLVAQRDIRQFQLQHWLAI

[12] = target: T6, Adenosine receptor A3 (Homo sapiens, UniProt P0DMS8)
T6 sequence (P0DMS8 whole entry): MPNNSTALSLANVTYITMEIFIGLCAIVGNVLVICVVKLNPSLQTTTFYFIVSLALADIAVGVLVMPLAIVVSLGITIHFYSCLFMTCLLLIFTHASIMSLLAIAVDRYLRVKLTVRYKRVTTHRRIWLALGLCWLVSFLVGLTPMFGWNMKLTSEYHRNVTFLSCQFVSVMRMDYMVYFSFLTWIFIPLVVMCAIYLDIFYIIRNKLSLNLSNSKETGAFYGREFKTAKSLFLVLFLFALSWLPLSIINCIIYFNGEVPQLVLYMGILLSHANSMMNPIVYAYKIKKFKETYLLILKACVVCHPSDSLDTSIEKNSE

[13] = target: Neuronal acetylcholine receptor subunit alpha-4 (Homo sapiens, UniProt P43681)
Chain of Neuronal acetylcholine receptor subunit alpha-4 (P43681 whole entry): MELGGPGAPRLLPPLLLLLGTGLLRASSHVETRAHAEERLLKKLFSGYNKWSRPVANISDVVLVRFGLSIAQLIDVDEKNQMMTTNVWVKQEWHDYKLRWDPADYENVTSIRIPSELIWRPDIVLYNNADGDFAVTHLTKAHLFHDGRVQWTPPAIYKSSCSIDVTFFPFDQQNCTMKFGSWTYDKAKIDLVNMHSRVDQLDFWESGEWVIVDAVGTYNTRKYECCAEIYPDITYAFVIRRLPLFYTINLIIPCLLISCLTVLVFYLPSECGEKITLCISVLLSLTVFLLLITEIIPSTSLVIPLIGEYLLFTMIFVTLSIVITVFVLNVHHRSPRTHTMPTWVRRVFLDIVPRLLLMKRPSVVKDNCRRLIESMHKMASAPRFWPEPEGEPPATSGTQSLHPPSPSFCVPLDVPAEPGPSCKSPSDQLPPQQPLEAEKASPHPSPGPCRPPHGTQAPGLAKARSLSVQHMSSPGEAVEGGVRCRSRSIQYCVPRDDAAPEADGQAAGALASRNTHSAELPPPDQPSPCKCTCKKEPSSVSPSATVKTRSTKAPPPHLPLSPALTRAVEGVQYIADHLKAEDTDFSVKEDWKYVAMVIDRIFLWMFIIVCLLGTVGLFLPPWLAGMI
Note: assay procedure not described here.

Chain of Adenosine receptor A2a (P29274 whole entry): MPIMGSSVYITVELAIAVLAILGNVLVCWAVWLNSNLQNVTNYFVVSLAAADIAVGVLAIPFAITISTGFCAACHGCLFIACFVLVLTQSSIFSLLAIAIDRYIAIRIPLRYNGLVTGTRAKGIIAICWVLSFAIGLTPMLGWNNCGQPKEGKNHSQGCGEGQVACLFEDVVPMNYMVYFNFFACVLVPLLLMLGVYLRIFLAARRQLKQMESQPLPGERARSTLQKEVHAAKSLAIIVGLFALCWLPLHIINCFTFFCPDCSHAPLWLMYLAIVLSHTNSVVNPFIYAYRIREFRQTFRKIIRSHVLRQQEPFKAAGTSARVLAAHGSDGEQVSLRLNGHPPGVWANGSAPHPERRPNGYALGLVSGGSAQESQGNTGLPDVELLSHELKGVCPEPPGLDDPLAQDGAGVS

Row | SMILES | AC50 [1] | AC50 [2] | AC50 [3] | AC50 [4] | AC50 [5] | AC50 [6] | AC50 [7] | AC50 [8] | AC50 [9] | AC50 [10] | AC50 [11] | AC50 [12] | AC50 [13]
1 | CC(C)COCC(CN(Cc1ccccc1)c1ccccc1)N1CCCC1 (configuration not stated) [BEPRIDIL] | > 30 µM | 3.3 µM | > 30 µM | 22.1 µM | > 30 µM | > 30 µM | 20.2 µM | > 30 µM | > 30 µM | > 30 µM | 21 µM | – | –
2 | CC(C)(C)C(=O)OCC(=O)[C@H]1CC[C@H]2[C@@H]3CCC4=CC(=O)CC[C@]4(C)[C@H]3CC[C@]12C [DESOXYCORTICOSTERONE PIVALATE] | > 10 µM | > 10 µM | > 10 µM | > 10 µM | > 10 µM | > 30 µM | > 10 µM | > 10 µM | > 30 µM | > 10 µM | > 10 µM | > 10 µM | > 10 µM
3 | C[C@]12CCC(=O)C(O)=C1CC[C@@H]1[C@@H]2CC[C@]2(C)C(=O)CC[C@@H]12 [FORMESTANE] | > 30 µM | > 30 µM | > 30 µM | > 30 µM | > 30 µM | > 30 µM | > 30 µM | > 30 µM | > 30 µM | > 30 µM | > 30 µM | > 30 µM | > 30 µM
4 | CCC1(c2ccccc2)CCC(=O)NC1=O (configuration not stated) [GLUTETHIMIDE] | > 10 µM | > 10 µM | > 10 µM | > 10 µM | > 10 µM | > 30 µM | > 10 µM | > 10 µM | > 30 µM | > 10 µM | > 10 µM | > 10 µM | > 10 µM
5 | CCC(C)C(CC)C(N)=O (configuration not stated) [VALNOCTAMIDE] | > 30 µM | > 30 µM | > 30 µM | > 30 µM | > 30 µM | > 30 µM | > 30 µM | > 30 µM | > 30 µM | > 30 µM | > 30 µM | > 30 µM | > 30 µM
6 | CNC1=Nc2ccc(Cl)cc2C(c2ccccc2)=[N+]([O-])C1 [CHLORDIAZEPOXIDE] | > 30 µM | > 10 µM | > 30 µM | > 30 µM | > 30 µM | > 30 µM | > 10 µM | > 30 µM | > 10 µM | > 30 µM | > 30 µM | – | > 10 µM
7 | Cc1cc2cc3c(C)cc(=O)oc3c(C)c2o1 [TRIOXSALEN] | 6.7 µM | > 10 µM | > 10 µM | > 10 µM | > 10 µM | > 30 µM | > 10 µM | > 10 µM | – | > 10 µM | > 10 µM | > 30 µM | > 10 µM
